Measured values as given in patent publication US8987235B2, “N-cyclopropyl-(20R)-2-methylene-19,26,27-trinor-25-aza-vitamin D analogs and their uses” (Wisconsin Alumni Research Foundation, priority 2011, dated 2015).
Entries after “also recorded” stand apart in the source; their conditions may differ.

Key:
[1] = target: T1, full-length recombinant rat vitamin D receptor (Rattus norvegicus, UniProt P13053); experiment: biochemical
T1 sequence (P13053 1-423): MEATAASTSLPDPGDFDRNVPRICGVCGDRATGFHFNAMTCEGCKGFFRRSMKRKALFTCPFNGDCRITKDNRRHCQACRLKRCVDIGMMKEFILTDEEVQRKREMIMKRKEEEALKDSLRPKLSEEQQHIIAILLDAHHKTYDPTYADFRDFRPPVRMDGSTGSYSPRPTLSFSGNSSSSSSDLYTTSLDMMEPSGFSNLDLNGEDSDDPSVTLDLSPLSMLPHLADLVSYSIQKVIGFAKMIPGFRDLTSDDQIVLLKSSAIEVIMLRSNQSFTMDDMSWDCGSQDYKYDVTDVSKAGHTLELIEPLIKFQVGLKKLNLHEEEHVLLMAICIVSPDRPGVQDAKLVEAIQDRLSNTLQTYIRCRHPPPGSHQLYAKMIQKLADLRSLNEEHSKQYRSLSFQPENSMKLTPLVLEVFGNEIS

[2] = test system: vitamin D-deficient rats; experiment: Bone calcium mobilization (serum calcium); format: in vivo, Sprague-Dawley rats
Description: Intestinal Calcium Transport and Bone Calcium Mobilization
Male, weanling Sprague-Dawley rats were placed on Diet 11 (Suda et al, J. Nutr. 100:1049, 1970) (0.47% Ca)+vitamins AEK for one week followed by Diet 11 (0.02% Ca)+vitamins AEK for 3 weeks. The rats were then switched to the same diet containing 0.47% Ca for one week followed by two weeks on the same diet containing 0.02% Ca. Dose administration began during the last week on 0.02% calcium diet. Four consecutive ip doses were given approximately 24 hours apart. Twenty-four hours after the last dose, blood was collected from the severed neck and the concentration of serum calcium determined by atomic absorption spectrometry as a measure of bone calcium mobilization. The first 10 cm of the intestine was also collected for intestinal calcium transport analysis using the everted gut sac method.

[3] = test system: Human promyelocytic leukemia (HL60) cells; experiment: HL-60 differentiation (nitro blue tetrazolium reduction); format: cell-based; details: four days, FIG. 2
Protocol: The study drugs were dissolved in ethanol and the concentrations determined using UV spectrophotometry. Serial dilutions were prepared so that a range of drug concentrations could be tested without changing the final concentration of ethanol (≦0.2%) present in the cell cultures.
Human promyelocytic leukemia (HL60) cells were grown in RPMI-1640 medium containing 10% fetal bovine serum. The cells were incubated at 37° C. in the presence of 5% CO2.
HL60 cells were plated at 1.2×10^5 cells/ml. Eighteen hours after plating, cells in duplicate were treated with drug. Four days later, the cells were harvested and a nitro blue tetrazolium reduction assay was performed (Collins et al., 1979; J. Exp. Med. 149:969-974). The percentage of differentiated cells was determined by counting a total of 200 cells and recording the number that contained intracellular black-blue formazan deposits. Verification of differentiation to monocytic cells was determined by measuring phagocytic activity (data not shown).

[4] = test system: 24-hydroxylase (24 Ohase) gene promoter in ROS 17/2.8 (bone) cells; experiment: In vitro transcription assay (24-hydroxylase promoter luciferase reporter); format: cell-based; details: for EC50: ROS 17/2.8 cells, 24-hydroxylase promoter luciferase, 16 h, FIG. 3, read-out: EC50, transcriptional activity in bone cells
Protocol: In Vitro Transcription Assay Transcription activity was measured in ROS 17/2.8 (bone) cells that were stably transfected with a 24-hydroxylase (24 Ohase) gene promoter upstream of a luciferase reporter gene (Arbour et al., 1998). Cells were given a range of doses. Sixteen hours after dosing the cells were harvested and luciferase activities were measured using a luminometer. RLU=relative luciferase units.

[5] = test system: vitamin D-deficient rats; experiment: Intestinal calcium transport (everted gut sac method); format: in vivo, Sprague-Dawley rats; details: low calcium diet, 4 ip doses, relative to 1,25(OH)2D3, FIG. 5
Description: Dose administration began during the last week on 0.02% calcium diet. […] The first 10 cm of the intestine was also collected for intestinal calcium transport analysis using the everted gut sac method.

Structure (SMILES)	Ki [1] [nM]	times less potent than 1,25(OH)2D3 in releasing bone calcium stores ([2]; rats, low calcium diet, 4 ip doses, relative to 1,25(OH)2D3, FIG. 4)	EC50 ([3]; Homo sapiens, HL-60, 96 h) [nM]	EC50 [4] [nM]	times less potent than 1,25(OH)2D3 in increasing transcription of the 24-hydroxylase gene ([4]; bone cells, relative to 1,25(OH)2D3)	times less potent than 1,25(OH)2D3 in promoting intestinal calcium transport [5]	serum calcium levels (in words) ([2]; 87 pmol and 780 pmol dosages, rats on 0.02% Ca diet, listed as 1,25(OH)2D3)	EC50 [3] [nM]
C=C1[C@H](O)CC(=C/C=C2\CCC[C@]3(C)[C@@H]([C@H](C)CCCNC4CC4)CC[C@@H]23)C[C@H]1O [CPA-1, N-cyclopropyl-(20R)-2-methylene-19,26,27-trinor-25-aza-1α-hydroxyvitamin D3]	3	about 400 times	3	3	about 10 times	about 20 times	–	–
C=C1/C(=C\C=C2/CCC[C@]3(C)[C@@H]([C@H](C)CCCC(C)(C)O)CC[C@@H]23)C[C@@H](O)C[C@@H]1O [1α,25-dihydroxyvitamin D3, reference compound]	–	–	–	0.2	–	–	increased serum calcium levels; also recorded: significant increases in serum calcium	2
